The source of these data is ChEMBL document CHEMBL1201862, “PubChem BioAssay data set” (2004).

The target in experiment [1] is FAD-linked sulfhydryl oxidase ALR (Homo sapiens, UniProt P55789). In words: inhibitors of human ALR sulfhydryl oxidase, dose response, biochemical, H2O2 detection, luminescence, cherry-pick (AID 493248).
For experiment [2], the target named is T1, Microphthalmia-associated transcription factor (Homo sapiens, UniProt O75030).
T1 sequence (O75030 whole entry): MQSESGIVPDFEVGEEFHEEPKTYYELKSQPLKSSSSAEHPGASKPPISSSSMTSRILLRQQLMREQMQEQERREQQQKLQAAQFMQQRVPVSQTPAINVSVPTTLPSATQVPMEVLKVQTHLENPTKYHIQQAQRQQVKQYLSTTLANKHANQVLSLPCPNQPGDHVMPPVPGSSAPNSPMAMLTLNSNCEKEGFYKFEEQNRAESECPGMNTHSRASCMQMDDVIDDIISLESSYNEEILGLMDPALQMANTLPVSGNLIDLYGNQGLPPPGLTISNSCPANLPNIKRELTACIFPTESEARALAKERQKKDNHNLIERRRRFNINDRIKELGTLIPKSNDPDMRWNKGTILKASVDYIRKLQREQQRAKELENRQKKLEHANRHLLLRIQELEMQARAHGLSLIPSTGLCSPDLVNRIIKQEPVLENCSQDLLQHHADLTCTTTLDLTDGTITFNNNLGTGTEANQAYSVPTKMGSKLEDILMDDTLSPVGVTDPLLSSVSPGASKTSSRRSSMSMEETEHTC
In words: TRPM1 promoter luciferase signal decrease, dose response, MITF inhibitor project, cell-based, SK-MEL-5, cherry-picked, set 3 (AID 493073).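 Further: SK-MEL-5 melanoma cells with luciferase driven by the MITF target TRPM1 promoter.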 In kind it is functional.

A further experiment deals with A-375. In words: A375 melanoma cell viability reduction, dose response, counter-screen for MITF modulator project, cherry-pick samples, set 2 (AID 540335). In kind it is functional, cell-based. The note with it: Homo sapiens. Background: Counterscreens check selectivity or assay interference.
The target in experiment [3] is T2, Histone-lysine N-methyltransferase NSD2 (Homo sapiens, UniProt O96028).
T2 sequence (O96028 whole entry): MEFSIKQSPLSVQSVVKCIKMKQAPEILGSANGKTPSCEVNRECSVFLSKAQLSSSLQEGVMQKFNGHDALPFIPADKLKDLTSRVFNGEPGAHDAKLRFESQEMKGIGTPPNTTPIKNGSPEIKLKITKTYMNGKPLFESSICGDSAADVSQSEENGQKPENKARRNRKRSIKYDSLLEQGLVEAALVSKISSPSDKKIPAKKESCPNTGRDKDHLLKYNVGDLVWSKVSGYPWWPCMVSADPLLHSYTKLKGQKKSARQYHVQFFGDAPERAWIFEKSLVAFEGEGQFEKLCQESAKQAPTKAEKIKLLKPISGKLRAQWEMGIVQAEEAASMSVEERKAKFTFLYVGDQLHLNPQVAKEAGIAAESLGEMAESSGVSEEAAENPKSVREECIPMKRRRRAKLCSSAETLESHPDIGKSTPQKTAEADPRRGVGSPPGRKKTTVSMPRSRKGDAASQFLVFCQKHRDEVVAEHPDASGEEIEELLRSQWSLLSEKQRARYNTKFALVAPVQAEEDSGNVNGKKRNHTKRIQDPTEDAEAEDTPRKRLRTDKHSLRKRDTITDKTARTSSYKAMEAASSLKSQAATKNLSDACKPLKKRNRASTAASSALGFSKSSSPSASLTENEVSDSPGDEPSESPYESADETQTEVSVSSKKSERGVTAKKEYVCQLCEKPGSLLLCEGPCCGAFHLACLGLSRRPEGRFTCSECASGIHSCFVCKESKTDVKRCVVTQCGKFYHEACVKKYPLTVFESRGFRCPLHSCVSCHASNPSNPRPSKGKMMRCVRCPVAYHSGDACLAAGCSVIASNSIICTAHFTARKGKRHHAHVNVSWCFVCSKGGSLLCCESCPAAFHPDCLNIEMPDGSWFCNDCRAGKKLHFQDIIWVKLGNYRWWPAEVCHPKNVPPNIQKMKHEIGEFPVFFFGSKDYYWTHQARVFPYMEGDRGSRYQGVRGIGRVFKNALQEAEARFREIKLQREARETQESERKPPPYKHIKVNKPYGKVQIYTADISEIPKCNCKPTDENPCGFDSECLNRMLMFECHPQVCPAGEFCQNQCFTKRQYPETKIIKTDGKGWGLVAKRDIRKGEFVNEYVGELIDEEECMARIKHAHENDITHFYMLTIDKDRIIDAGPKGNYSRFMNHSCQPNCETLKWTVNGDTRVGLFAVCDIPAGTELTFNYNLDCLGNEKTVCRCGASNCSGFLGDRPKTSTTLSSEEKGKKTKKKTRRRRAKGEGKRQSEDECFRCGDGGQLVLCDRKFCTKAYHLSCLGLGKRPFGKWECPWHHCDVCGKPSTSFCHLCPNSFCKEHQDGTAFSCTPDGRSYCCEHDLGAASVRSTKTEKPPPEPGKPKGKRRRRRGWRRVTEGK
In kind it is biochemical.

For experiment [4], the target named is T3, Heat shock factor protein 1 (Mus musculus, UniProt P38532).
T3 sequence (P38532 whole entry): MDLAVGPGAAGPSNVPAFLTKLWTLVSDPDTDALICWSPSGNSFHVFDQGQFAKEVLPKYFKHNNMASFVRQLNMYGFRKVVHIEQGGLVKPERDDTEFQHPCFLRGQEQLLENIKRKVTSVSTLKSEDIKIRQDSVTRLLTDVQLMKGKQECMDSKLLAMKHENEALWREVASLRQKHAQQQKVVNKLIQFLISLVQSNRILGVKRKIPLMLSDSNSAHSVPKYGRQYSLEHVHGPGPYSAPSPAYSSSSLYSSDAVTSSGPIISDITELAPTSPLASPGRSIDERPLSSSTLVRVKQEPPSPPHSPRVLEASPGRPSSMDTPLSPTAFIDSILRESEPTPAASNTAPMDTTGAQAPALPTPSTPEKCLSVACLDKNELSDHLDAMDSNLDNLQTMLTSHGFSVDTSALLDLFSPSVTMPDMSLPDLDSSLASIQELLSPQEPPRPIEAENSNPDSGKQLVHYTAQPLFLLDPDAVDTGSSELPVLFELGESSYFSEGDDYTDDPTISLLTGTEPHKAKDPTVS
In words: inhibition of MG132-induced HSE-luciferase signal, confirmation, cell-based, NIH3T3, luminescence, dose retest (AID 2382).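 Further: NIH3T3 fibroblasts with HSF1-driven luciferase reporter stressed by proteasome inhibitor MG132; luminescence from HSF1-driven luciferase expression after 8 hours of MG132 stress.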 It is filed as functional.

A further experiment deals with CHO. In words: cytotoxicity in TLR9-MyD88 CHO cells, dose response, cytotoxicity control for TLR9-MyD88 binding inhibitor project, cell-based, luminescence (AID 588339).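 Further: CHO cells stably coexpressing TLR9 and MyD88 fusions from primary screen; compound exposure lasted 48 hours before viability readout.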 It is filed as functional, hamster. The note with it: Cricetulus griseus.
The next experiment addresses T4, Caspase-3 (Homo sapiens, UniProt P42574).
T4 sequence (P42574 whole entry): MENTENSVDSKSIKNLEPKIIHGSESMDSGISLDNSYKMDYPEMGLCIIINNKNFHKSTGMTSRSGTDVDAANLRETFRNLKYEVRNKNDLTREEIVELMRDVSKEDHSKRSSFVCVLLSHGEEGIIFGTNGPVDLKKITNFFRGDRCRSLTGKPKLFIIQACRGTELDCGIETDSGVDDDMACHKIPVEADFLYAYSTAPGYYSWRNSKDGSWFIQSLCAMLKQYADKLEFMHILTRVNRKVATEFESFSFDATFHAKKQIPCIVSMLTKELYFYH
It is filed as functional.

Experiment [5] has as its target T5, Sentrin-specific protease 7 (Homo sapiens, UniProt Q9BQF6).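 Further: Luminescence-based dose-response confirmation of ultra-high-throughput screening hits, measuring inhibition of SENP7.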
T5 sequence (Q9BQF6 whole entry): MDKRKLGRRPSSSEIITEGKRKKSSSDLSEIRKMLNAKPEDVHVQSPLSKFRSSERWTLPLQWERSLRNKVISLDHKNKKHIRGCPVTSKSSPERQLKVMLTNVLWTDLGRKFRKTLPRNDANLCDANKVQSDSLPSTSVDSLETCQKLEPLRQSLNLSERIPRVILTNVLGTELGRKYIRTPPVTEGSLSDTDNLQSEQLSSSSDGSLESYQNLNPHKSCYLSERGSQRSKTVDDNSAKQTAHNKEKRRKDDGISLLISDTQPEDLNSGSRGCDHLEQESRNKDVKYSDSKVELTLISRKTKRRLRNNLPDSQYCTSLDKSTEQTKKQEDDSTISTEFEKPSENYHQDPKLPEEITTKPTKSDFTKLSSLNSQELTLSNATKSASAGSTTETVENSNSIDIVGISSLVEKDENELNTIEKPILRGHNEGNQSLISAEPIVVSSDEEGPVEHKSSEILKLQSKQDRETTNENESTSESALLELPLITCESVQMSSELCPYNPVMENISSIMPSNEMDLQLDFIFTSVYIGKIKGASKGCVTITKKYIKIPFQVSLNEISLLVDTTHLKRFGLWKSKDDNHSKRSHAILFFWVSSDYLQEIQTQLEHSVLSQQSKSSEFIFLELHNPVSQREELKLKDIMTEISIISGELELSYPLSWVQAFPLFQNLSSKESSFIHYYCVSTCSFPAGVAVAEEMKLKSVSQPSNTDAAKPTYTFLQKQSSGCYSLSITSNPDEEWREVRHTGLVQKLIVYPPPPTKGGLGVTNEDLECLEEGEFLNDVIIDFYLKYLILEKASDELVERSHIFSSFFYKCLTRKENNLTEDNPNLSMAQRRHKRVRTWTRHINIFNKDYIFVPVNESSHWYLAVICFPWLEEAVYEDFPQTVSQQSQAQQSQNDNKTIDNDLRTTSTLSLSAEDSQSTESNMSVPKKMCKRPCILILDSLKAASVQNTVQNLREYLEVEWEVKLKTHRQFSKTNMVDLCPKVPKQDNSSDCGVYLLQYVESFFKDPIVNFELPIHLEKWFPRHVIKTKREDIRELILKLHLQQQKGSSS
In kind it is functional.

Experiment [6] deals with T6, Sentrin-specific protease 6 (Homo sapiens, UniProt Q9GZR1).
T6 sequence (Q9GZR1 whole entry): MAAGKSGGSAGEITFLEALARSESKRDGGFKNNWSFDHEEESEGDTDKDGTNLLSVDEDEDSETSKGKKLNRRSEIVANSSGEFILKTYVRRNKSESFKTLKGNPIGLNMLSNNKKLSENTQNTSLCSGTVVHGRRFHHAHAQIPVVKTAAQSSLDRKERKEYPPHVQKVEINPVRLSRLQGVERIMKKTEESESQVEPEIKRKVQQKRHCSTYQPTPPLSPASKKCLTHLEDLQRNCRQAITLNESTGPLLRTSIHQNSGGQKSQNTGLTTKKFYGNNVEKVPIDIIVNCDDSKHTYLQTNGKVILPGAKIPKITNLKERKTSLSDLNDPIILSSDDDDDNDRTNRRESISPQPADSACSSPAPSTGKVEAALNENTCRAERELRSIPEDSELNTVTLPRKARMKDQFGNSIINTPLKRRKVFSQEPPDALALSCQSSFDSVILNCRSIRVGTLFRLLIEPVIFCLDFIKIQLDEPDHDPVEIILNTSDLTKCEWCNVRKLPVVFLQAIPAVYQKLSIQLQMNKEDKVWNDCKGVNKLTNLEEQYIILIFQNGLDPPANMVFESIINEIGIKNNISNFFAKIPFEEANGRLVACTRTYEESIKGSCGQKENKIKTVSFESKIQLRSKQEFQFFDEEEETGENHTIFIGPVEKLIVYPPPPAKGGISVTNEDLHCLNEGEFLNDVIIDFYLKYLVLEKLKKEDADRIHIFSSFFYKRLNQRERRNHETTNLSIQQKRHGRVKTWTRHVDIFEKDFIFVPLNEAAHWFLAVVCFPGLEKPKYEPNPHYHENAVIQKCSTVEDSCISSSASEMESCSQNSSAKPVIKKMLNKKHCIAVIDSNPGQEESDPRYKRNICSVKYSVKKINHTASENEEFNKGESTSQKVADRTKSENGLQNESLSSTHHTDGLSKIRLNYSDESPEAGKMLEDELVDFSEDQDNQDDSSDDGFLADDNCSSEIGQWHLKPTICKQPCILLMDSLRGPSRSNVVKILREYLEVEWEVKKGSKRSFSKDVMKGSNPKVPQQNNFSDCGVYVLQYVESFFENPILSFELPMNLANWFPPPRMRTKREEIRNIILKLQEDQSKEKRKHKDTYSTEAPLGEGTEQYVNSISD
It is filed as functional.

Experiment [7] has as its target T7, Sentrin-specific protease 8 (Homo sapiens, UniProt Q96LD8).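 Further: luminescence read-out of SENP8 inhibition, dose-response confirmation following an ultra-high-throughput screen.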
T7 sequence (Q96LD8 whole entry): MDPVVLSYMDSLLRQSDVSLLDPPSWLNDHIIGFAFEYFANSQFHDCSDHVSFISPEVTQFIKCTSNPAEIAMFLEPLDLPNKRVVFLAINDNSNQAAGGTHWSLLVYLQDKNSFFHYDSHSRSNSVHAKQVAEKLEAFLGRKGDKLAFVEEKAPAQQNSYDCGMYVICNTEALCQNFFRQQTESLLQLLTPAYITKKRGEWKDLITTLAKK
It is filed as functional.

The target in a further experiment is Beta-galactosidase (Escherichia coli, UniProt Q8VNN2). In words: PubChem AID 485352. In kind it is functional.
Sequence of Beta-galactosidase (Q8VNN2 whole entry): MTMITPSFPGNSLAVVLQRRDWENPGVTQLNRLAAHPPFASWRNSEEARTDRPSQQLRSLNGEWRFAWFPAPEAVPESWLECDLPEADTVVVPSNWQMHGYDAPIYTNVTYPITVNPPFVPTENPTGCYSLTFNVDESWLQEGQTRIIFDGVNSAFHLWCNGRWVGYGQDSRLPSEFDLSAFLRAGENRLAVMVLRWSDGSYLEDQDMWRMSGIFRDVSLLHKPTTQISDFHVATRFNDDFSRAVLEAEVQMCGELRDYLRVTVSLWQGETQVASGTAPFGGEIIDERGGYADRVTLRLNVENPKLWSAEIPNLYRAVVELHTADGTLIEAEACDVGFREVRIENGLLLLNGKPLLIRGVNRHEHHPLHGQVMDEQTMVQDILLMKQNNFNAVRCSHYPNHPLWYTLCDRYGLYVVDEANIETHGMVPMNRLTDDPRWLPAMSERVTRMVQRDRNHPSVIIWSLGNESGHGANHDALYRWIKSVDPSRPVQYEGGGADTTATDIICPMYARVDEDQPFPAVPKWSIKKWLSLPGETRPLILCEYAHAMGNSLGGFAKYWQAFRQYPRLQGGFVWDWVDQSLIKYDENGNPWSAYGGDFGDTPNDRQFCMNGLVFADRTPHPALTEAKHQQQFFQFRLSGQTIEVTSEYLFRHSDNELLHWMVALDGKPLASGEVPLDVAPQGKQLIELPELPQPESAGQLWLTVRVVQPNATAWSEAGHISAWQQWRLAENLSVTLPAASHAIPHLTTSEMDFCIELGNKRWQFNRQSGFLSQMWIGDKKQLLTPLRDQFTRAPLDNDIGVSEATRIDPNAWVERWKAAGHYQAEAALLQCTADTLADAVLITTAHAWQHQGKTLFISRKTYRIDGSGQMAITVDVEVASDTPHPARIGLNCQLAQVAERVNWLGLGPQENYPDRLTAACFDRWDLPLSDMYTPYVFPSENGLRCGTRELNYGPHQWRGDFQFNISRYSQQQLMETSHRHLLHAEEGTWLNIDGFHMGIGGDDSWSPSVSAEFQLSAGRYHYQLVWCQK
In experiment [8] the target is Type-1 angiotensin II receptor (Homo sapiens, UniProt P30556). In words: AT1 receptor antagonists, dose response, selectivity assay for APJ receptor antagonist project, cell-based, uHTS hits (AID 463214).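 Further: antagonist potency against angiotensin II stimulated AT1 response.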 In kind it is functional.
Sequence of Type-1 angiotensin II receptor (P30556 whole entry): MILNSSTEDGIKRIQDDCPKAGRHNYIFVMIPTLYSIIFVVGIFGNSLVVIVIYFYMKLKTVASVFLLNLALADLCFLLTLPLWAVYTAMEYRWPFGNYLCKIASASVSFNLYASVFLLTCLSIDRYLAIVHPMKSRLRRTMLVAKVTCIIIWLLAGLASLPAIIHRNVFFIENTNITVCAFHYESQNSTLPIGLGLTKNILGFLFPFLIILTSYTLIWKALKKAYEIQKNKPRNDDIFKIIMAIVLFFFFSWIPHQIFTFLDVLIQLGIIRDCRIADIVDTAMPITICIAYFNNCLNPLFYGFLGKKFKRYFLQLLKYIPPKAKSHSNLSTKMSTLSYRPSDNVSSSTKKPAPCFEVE
In another experiment the test system is INS1. In words: protection from cytokine-induced mitochondrial depolarization, dose response, cell-based, INS-1E, JC-1 fluorescence ratio, dry powder (AID 488931). It is filed as functional. The note with it: Rattus norvegicus.

As a reminder, the AC50 is the midpoint of the concentration-response curve, whichever way the signal moves. What is called EC50 is the midpoint of the concentration-response curve. A word on the IC50: it is the midpoint of a concentration-inhibition curve.

The source made the active and inactive calls.

Sequence of FAD-linked sulfhydryl oxidase ALR (P55789 whole entry): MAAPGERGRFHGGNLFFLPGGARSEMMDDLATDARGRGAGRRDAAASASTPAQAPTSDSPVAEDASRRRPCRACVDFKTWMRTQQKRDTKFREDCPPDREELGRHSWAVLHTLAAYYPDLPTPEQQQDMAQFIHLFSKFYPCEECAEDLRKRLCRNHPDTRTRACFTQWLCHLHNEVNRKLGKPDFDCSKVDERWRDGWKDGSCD

With `Cc1cc(C)cc(N2C(=O)NC(=O)/C(=C\C=C\c3ccco3)C2=O)c1`, the AC50 in [1] is 0.501 µM (active); in experiment [2] it was 4.88 µM (active); in the experiment with A-375 it was 26.7 µM (active); in [3], 18.1 µM (active).
Turning to `CC(C)OC(=O)c1sc2nc(-c3ccccc3)ccc2c1N`, the EC50 in experiment [4] was < 0.16 µM (active). Also, the IC50 in the experiment on CHO is > 49.8 µM (inactive).
On to `Cc1nn2cc(-c3ncc(C(F)(F)F)cc3Cl)cnc2c1Br`, for which the IC50 at Caspase-3 is 21.5 µM (active); in experiment [5], 19.4 µM (active); in experiment [6], 44.8 µM (active); in experiment [7], 36.9 µM (active).
With `Cc1nnsc1C(=O)NNc1ccc(C(C)(C)C)cc1`, the EC50 at Beta-galactosidase is > 40 µM (inactive). For the same molecule, in experiment [8], the IC50 is 2.56 µM (active).
For the molecule `COc1ccc(S(=O)(=O)N(C)C[C@@H]2Oc3c(NC(=O)C4CCCCC4)cccc3C(=O)N([C@@H](C)CO)C[C@H]2C)cc1`, the AC50 with INS1 is 137 µM (active).
As for `O=S(=O)(N/N=C\c1ccc(-c2ccccc2Cl)o1)c1ccccc1`, the EC50 at Beta-galactosidase is > 40 µM (inactive). Also, the IC50 in [8] was > 40 µM (not active).
